Assay results published in patent publication US20220193067A1, “QUINOLINE COMPOUND OR PHARMACEUTICALLY ACCEPTABLE SALT THEREOF FOR TREATING EWING'S SARCOMA” (CHIA TAI TIANQING PHARMACEUTICAL GROUP CO., LTD., priority 2019, published 2022).
Counter-ions that a name gives are not always drawn.

Assays:
[1] = test system: human Ewing's sarcoma cells A673; assay: Effect on growth of Ewing's sarcoma, A673 subcutaneous xenograft in nude mice; assay type: in vivo, BALB/cA-nude mice; details: 6.25 mg/kg orally daily for 14 consecutive days; A673 subcutaneous tumors in nude mice
Method: The dihydrochloride salt of the compound of formula I was dissolved in water to a concentration of 25 mg/mL and then further diluted with distilled water to a concentration of […].
BALB/cA-nude mice, feeding environment: SPF grade. Nude mice were inoculated subcutaneously with human Ewing's sarcoma cells A673, and randomly grouped (d0) after tumors grew to 100-250 mm^3.
The dihydrochloride of the compound of formula I (a dosage of 6.25 mg/kg) was orally administered daily to the animals in a volume of 10 mL/kg for 14 consecutive days. The tumor volume was measured 2-3 times per week, the mice were weighed, and the data was recorded.
The equation for calculating tumor volume (V) is as follows: V=½×a×b^2, where a and b represent length and width, respectively.
T/C (%)=(T-T0)/(C-C0)×100%, where T and C represent the tumor volumes of the administration group mice and the control group (i.e., solvent group) mice, respectively, at the end of the experiment; T0 and C0 represent the tumor volumes of administration group mice and the control group (i.e., solvent group) mice, respectively, at the time of grouping and administration (d0).
The equation for calculating relative tumor volume (RTV) after administration is as follows: RTV=TV/TV0 (TV represents tumor volume at each measurement after administration, and TV0 represents tumor volume at the time of grouping and administration (d0)).

[2] = test system: Human Ewing's sarcoma cell line A673; assay: Proliferation of Ewing's sarcoma cells (MTT method), combination with VAC-2 regimen; assay type: cell-based; details: combined with 2 μg/mL vincristine, 75 μg/mL doxorubicin and 500 μg/mL cyclophosphamide
Method: The test drugs were dissolved in dimethyl sulfoxide to prepare a 100 mmol/L mother solution, which was stored at −20° C. for later use. When in use, the mother solution was prepared with a DMEM serum culture medium to reach a required concentration; vincristine, doxorubicin and cyclophosphamide were mixed (VAC-2 regimen), and the dihydrochloride diluent of the compound of formula I was mixed with vincristine, doxorubicin and cyclophosphamide. […]
The ICso value can be measured by a conventional method in the art (e.g., MTT method), or can be measured by the following method (MTT method):
Cells in logarithmic growth phase were inoculated in a 96-well culture plate (180 μL/well, 10^5 cells/well); after 2 h of incubation at 37° C./5% CO2, the cells were added with the dihydrochloride of the compound of formula I (solutions at gradient concentrations of 0, 0.005, 0.1, 0.05, 0.1, 0.5, 1.5, 4, 12 and 30 μg/mL), 2 μg/mL vincristine, 75 μg/mL doxorubicin and 500 μg/mL cyclophosphamide, and the resulting mixtures were incubated. […] The next day, OD values were measured at 570 nm and 630 nm wavelengths using a microplate reader (SPECTRA max 190) (calculated by subtracting OD values measured at 630 nm (the control wavelength) from all OD values measured at 570 nm), and the cell growth inhibition rate was calculated according to the following equation: […]

[3] = test system: Human Ewing's sarcoma A673 cells; assay: Apoptosis of Ewing's sarcoma cells, Annexin-V-FITC/PI flow cytometry; assay type: cell-based; details: different concentrations (0-30 μg/mL) added to vincristine+doxorubicin+cyclophosphamide; 24 h
Method: Human Ewing's sarcoma A673 cells in logarithmic growth phase were added at 10^5 cells/well to a DMEM complete culture medium containing 2 μg/mL vincristine, 75 μg/mL doxorubicin and 500 μg/mL cyclophosphamide, and to a DMEM complete culture medium containing the dihydrochloride of the compound of formula I (at concentrations of 0, 0.005, 0.1, 0.05, 0.1, 0.5, 1.5, 4, 12 and 30 μg/mL), 2 μg/mL vincristine, 75 μg/mL doxorubicin and 500 μg/mL cyclophosphamide. The resulting mixtures were incubated for 24 h, and then the cells were collected, centrifuged at 1000 r/min for 3-5 min, and washed with PBS. Then the apoptosis of the cells was detected using an Annexin-V-FITC/PI apoptosis detection kit. The cells were resuspended in 100 μL of 1×Binding buffer solution, and 5 μL of Annexin-V-FITC and 2.5 μL of PI dye were added. The mixture was shaken and mixed well in the absence of light, reacted for 15 min at room temperature, added with 300 μL of 1×Binding buffer solution, mixed well, and then subjected to detection by a flow cytometer. The test was repeated 3 times.

Ewing's sarcoma patients = assay: Clinical trial of capsule combined with VAC-2 regimen in Ewing's sarcoma patients; assay type: in vivo, human; details: 12 mg capsule orally once daily, 2 weeks on/1 week off
Method: A clinical trial was carried out in Ewing's sarcoma patients with measurable lesions (according to RECIST 1.1) for the combination of the dihydrochloride capsule of the compound of formula I and a second therapeutic agent (VAC-2 regimen). Patients in the patient group comprised patients who had previously received chemotherapy and those who had not. The patients were orally administered with 12 mg of the dihydrochloride capsule of the compound of formula I once daily (2 weeks of treatment and 1 week of interruption constitute one treatment cycle), and meanwhile the patients were treated with the VAC-2 regimen: intravenous infusion of 2 mg of vincristine on day 1, intravenous infusion of 75 mg/m^2 of doxorubicin on day 1, and intravenous infusion of 1200 mg/m^2 of cyclophosphamide on day 1 (28 days constitute one cycle). The evaluation endpoints included: efficacy endpoints, e.g., progression-free survival (PFS), objective response rate (ORR), duration of response (DOR), stable disease (SD) rate, clinical benefit rate (CBR), overall survival (OS), etc.; safety endpoints, e.g., incidence and severity of adverse events; and quality of life.

COc1cc2c(Oc3ccc4[nH]c(C)cc4c3F)ccnc2cc1OCC1(N)CC1 [1-1-[[[4-(4-fluoro-2-methyl-1H-indol-5-yl)oxy-6-methoxyquinolin-7-yl]oxy]methyl]cyclopropylamine dihydrochloride]
growth of Ewing's sarcoma [1]: significantly inhibit the growth of Ewing's sarcoma | inhibition effect on proliferation of A673 cells [2]: definite inhibition effect | apoptosis caused by the VAC-2 regimen [3]: remarkably enhance apoptosis | overall survival (Ewing's sarcoma patients): can prolong overall survival | treatment of Ewing's sarcoma (efficacy) (Ewing's sarcoma patients): effective for treatment of Ewing's sarcoma
